Residence time and Kd data for 37 compounds are collected here from patent publication US10421756B2, “Heterobicyclic N-aminophenyl-amides as inhibitors of histone deacetylase” (Rodin Therapeutics, Inc., priority 2015, dated 2019).

Common to all, as to type: binding
One assay addresses HDAC1 (Homo sapiens (Human), UniProt Q13547). Put plainly: Reporter displacement assay (HDAC1). The conditions noted are these: for Kd: reporter probe displacement, Cheng Prusoff. The protocol: [The procedure below names another target; the source lists this target under the same test.] HDAC2 containing a C-terminal HIS-Tag (Proteros) and fluorescently-labeled anti-HIS-antibody are diluted in one vial in assay buffer 50 mM Tris, pH 8.0, 1 mM DTT, 150 mM NaCl, and 0.01% Tween20. Components are pre-incubated for 30 min, then a small volume of reporter probe (Proteros) is added from a highly concentrated stock and incubation is continued for another 30 min.
Ten μl/well of pre-formed complex are transferred into 384 well assay plates (Corning). Compounds to be profiled are serially diluted from […] in DMSO and 60 nl are added to assay plates by pintool transfer (CybiWell, Cybio).
For Kd determination, percent probe displacement values are calculated for each compound concentration and plotted against the compound concentration. […] Since the reporter probe is used at a concentration reflecting its own Kd value, compound Kd values can be calculated according to the Cheng Prusoff equation.

Assay [1] has as its target T1, HDAC2 (Homo sapiens (Human), UniProt Q92769). Put plainly: Reporter displacement assay (HDAC2). The following applies: reporter probe displacement, Cheng Prusoff. On the procedure: HDAC2 containing a C-terminal HIS-Tag (Proteros) and fluorescently-labeled anti-HIS-antibody are diluted in one vial in assay buffer 50 mM Tris, pH 8.0, 1 mM DTT, 150 mM NaCl, and 0.01% Tween20. Components are pre-incubated for 30 min, then a small volume of reporter probe (Proteros) is added from a highly concentrated stock and incubation is continued for another 30 min. Final concentrations after adding the reporter probe amount to 20 nM HDAC2, 4 nM antibody, and 180 nM probe.
Ten μl/well of pre-formed complex are transferred into 384 well assay plates (Corning). Compounds to be profiled are serially diluted from […] in DMSO and 60 nl are added to assay plates by pintool transfer (CybiWell, Cybio). Fluorescence intensity signal is read after 4 h in a Pherastar FS (BMG Labtech) at 337/665 nm.
For Kd determination, percent probe displacement values are calculated for each compound concentration and plotted against the compound concentration. IC50-like values (corresponding to 50% probe displacement) are calculated using standard fitting algorithms. Since the reporter probe is used at a concentration reflecting its own Kd value, compound Kd values can be calculated according to the Cheng Prusoff equation.
In the table, “A” indicates a Kd value of less than 0.1 μM; “B” a Kd value of between 0.1 μM and 0.5 μM; “C” a Kd value of greater than 0.5 μM and less than or equal to 5.0 μM; and “D” a Kd value of greater than 5.0 μM.

The target of assay [2] is T1, HDAC2. Nature of the assay: Reporter displacement assay (HDAC2).

Some results are limits rather than exact numbers.

T1 sequence (Q92769 whole entry): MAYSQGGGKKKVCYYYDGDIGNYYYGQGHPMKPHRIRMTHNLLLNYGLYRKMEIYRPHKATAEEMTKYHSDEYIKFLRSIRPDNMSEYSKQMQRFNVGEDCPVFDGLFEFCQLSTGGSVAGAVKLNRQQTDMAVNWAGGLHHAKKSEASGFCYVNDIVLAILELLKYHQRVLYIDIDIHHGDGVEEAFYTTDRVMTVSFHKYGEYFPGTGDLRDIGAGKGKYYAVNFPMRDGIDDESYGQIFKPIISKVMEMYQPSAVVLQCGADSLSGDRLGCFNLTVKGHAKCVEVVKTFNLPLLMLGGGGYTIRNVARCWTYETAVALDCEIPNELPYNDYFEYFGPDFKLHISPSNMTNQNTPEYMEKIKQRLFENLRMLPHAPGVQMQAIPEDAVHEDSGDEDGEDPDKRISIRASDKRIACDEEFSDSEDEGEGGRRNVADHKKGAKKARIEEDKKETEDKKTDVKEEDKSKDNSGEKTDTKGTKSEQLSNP
Chain of HDAC1 (Q13547 whole entry): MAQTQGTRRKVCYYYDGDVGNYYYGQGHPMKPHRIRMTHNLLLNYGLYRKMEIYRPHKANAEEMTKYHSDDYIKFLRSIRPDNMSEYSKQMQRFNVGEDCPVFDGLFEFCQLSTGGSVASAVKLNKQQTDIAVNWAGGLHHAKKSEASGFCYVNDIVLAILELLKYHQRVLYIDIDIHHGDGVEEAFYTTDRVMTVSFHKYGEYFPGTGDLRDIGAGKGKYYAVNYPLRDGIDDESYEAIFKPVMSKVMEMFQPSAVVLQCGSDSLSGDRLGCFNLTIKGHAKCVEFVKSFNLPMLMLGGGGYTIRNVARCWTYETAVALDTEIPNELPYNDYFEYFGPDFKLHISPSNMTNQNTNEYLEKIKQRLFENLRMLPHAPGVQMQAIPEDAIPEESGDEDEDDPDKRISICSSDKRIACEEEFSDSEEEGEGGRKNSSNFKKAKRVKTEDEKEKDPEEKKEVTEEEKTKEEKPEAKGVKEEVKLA

Usually Kd stands for a measure of binding affinity in units of concentration. At HDAC1, `Nc1ccc(-c2ccncc2)cc1NC(=O)N1Cc2cncnc2C1` [Compound 100] had a residence time of 470 min and a dissociation constant (Kd) of 100 to 500 nM.

On to `Nc1ccc(-c2ccncc2)cc1NC(=O)N1Cc2nccnc2C1` [Compound 101], for which the Kd is 100 to 500 nM at HDAC2 [1] and below 100 nM at HDAC1. Further, the residence time at HDAC1 was 906 min; at HDAC2 [2], 1930 min.

In the case of `Nc1ccc(-c2ccncc2)cc1NC(=O)N1Cc2ccncc2C1` [Compound 102], the dissociation constant Kd is 100 to 500 nM on HDAC2 [1] and below 100 nM on HDAC1. Also, the residence time stood at 1240 min at HDAC1 and 1410 min at HDAC2 [2].

Take `Nc1ccc(-c2ccncn2)cc1NC(=O)N1Cc2ccncc2C1` [Compound 103]: the Kd at HDAC2 [1] and on HDAC1 was 500 to 5000 nM throughout. For the same compound, the results for the residence time on HDAC1 and on HDAC2 [2] were 330 min and 1960 min, respectively.

On to `CC(C)(C)OC(=O)N1CC2CC1CN2C(=O)Nc1cc(-c2ccncc2)ccc1N` (stereo not drawn) [Compound 104], for which the Kd on HDAC2 [1] and at HDAC1 was above 5000 nM each time.

Turning to `Nc1ccc(-c2ccncc2)cc1NC(=O)N1CC2CCC(C1)O2` [Compound 105], the Kd on HDAC2 [1] and on HDAC1 was above 5000 nM each time.

Consider `CC(C)(C)OC(=O)N1C2CCC1CN(C(=O)Nc1cc(-c3ccncc3)ccc1N)C2` [Compound 106], for which the dissociation constant (Kd) on HDAC2 [1] and on HDAC1 was above 5000 nM in each case.

`CC(=O)N1C2CCC1CN(C(=O)Nc1cc(-c3ccncc3)ccc1N)C2` [Compound 107]: the Kd on HDAC2 [1] and at HDAC1 was above 5000 nM throughout.

`CC(=O)N1CC2CC1CN2C(=O)Nc1cc(-c2ccncc2)ccc1N` (stereo not drawn) [Compound 108]: the Kd on HDAC2 [1] and on HDAC1 was above 5000 nM throughout.

In the case of `CC(=O)N1C2CCC1CN(C(=O)Nc1cc(-c3ccncc3)ccc1N)C2` [Compound 109], the dissociation constant (Kd) on HDAC2 [1] and at HDAC1 was above 5000 nM in each case.

In the case of `CC(C)(C)OC(=O)N1C2CCC1CN(C(=O)Nc1cc(-c3ccncc3)ccc1N)C2` [Compound 110], the dissociation constant (Kd) at HDAC2 [1] and at HDAC1 was above 5000 nM throughout.

As to `Nc1ccc(-c2ccc(F)cc2)cc1NC(=O)N1CC2CCC(C1)O2` [Compound 111], the Kd on HDAC2 [1] and at HDAC1 was above 5000 nM throughout. The residence time on HDAC1 amounted to 34 min; on HDAC2 [2], 61 min.

As to `CC(C)(C)OC(=O)N1C2CCC1CN(C(=O)Nc1cc(-c3ccc(F)cc3)ccc1N)C2` [Compound 112], the Kd on HDAC2 [1] and on HDAC1 was above 5000 nM in each case. Besides, the residence time at HDAC1 stood at 9 min; on HDAC2 [2], 38 min.

For `Nc1ccc(-c2ccc(F)cc2)cc1NC(=O)N1CC2CCC(C1)N2` [Compound 113], the Kd at HDAC2 [1] and at HDAC1 was above 5000 nM throughout.

Take `Nc1ccc(-c2ccc(F)cc2)cc1NC(=O)N1CC2CNCC2C1` (stereo not drawn) [Compound 114]: the equilibrium dissociation constant (Kd) at HDAC2 [1] is 500 to 5000 nM; on HDAC1 it was above 5000 nM. Besides, the residence time on HDAC1 came to 127 min; at HDAC2 [2] it was 1470 min.

As for `CN1CC2CN(C(=O)Nc3cc(-c4ccncc4)ccc3N)CC2C1=O` (stereo not drawn) [Compound 115], the Kd at HDAC2 [1] and at HDAC1 was 500 to 5000 nM in each case. Also, the residence time at HDAC1 worked out at 98 min.

For the compound `CC(=O)N1C2CCC1CN(C(=O)Nc1cc(-c3ccc(F)cc3)ccc1N)C2` [Compound 116], the equilibrium dissociation constant (Kd) at HDAC2 [1] and on HDAC1 was above 5000 nM in each case. For the same compound, the residence time was 16 min at HDAC1 and 30 min on HDAC2 [2].

On to `Nc1ccc(-c2ccc(F)cc2)cc1NC(=O)N1CC2CCC(C1)N2C=O` [Compound 117], for which the dissociation constant (Kd) was 500 to 5000 nM at HDAC2 [1] and above 5000 nM on HDAC1. For the same compound, the residence time on HDAC1 is 29 min; at HDAC2 [2] it was 36 min.

For the compound `Nc1ccc(-c2ccc(F)cc2)cc1NC(=O)N1CCC2(CCNC2)CC1` [Compound 118], the Kd on HDAC2 [1] was 100 to 500 nM; on HDAC1 it was below 100 nM. The values for the residence time at HDAC1 and on HDAC2 [2] were 1180 min and 636 min, respectively.

With `Nc1ccc(-c2ccc(F)cc2)cc1NC(=O)N1Cc2nccnc2C1` [Compound 119], the equilibrium dissociation constant (Kd) on HDAC2 [1] and at HDAC1 was 100 to 500 nM each time. The residence time on HDAC1 was found to be 1500 min; on HDAC2 [2], 2150 min.

Turning to `CNC(=O)N1CC2CN(C(=O)Nc3cc(-c4ccc(F)cc4)ccc3N)CC2C1` (stereo not drawn) [Compound 120], the dissociation constant (Kd) is 100 to 500 nM on HDAC2 [1] and below 100 nM on HDAC1. Further, the residence time at HDAC1 came out at 1550 min; on HDAC2 [2] it was 2360 min.

In the case of `NCC(=O)N1CC2CN(C(=O)Nc3cc(-c4ccc(F)cc4)ccc3N)CC2C1` (stereo not drawn) [Compound 121], the Kd on HDAC2 [1] is 500 to 5000 nM; at HDAC1 it was 100 to 500 nM. Further, the residence time at HDAC1 was 587 min; at HDAC2 [2], 869 min.

Consider `Nc1ccc(-c2ccc(F)cc2)cc1NC(=O)c1cn2c(n1)CNCC2` [Compound 122], for which the Kd is 100 to 500 nM on HDAC2 [1] and below 100 nM at HDAC1. The residence time was 1480 min at HDAC1 and 1950 min at HDAC2 [2].

Take `Nc1ccc(-c2ccncc2)cc1NC(=O)c1cn2c(n1)CNCC2` [Compound 123]: the Kd on HDAC2 [1] and at HDAC1 was 100 to 500 nM in each case. The residence time on HDAC1 is 1050 min; at HDAC2 [2], 1610 min.

`CC(C)(C)OC(=O)N1CC2CN(C(=O)Nc3cc(-c4ccc(F)cc4)ccc3N)CC2C1` (stereo not drawn) [Compound 124]: the Kd on HDAC2 [1] and at HDAC1 was 100 to 500 nM in each case. For the same compound, the residence time at HDAC1 was 584 min; at HDAC2 [2], 1790 min.

In the case of `Nc1ccc(-c2ccc(F)cc2)cc1NC(=O)N1CC2CN(C(=O)C3CC3)CC2C1` (stereo not drawn) [Compound 125], the dissociation constant (Kd) was 100 to 500 nM at HDAC2 [1] and below 100 nM on HDAC1. In addition, the values for the residence time on HDAC1 and at HDAC2 [2] were 788 min and 1410 min, respectively.

With `Nc1ccc(-c2ccc(F)cc2)cc1NC(=O)N1CC2CN(C3COC3)CC2C1` (stereo not drawn) [Compound 126], the Kd is 100 to 500 nM on HDAC2 [1] and below 100 nM on HDAC1. The residence time on HDAC1 is 937 min; at HDAC2 [2], 2620 min.

As to `Nc1ccc(-c2ccc(F)cc2)cc1NC(=O)N1CCC2(CC1)COC2` [Compound 127], the equilibrium dissociation constant (Kd) was 100 to 500 nM on HDAC2 [1] and below 100 nM on HDAC1. Besides, the residence time on HDAC1 came to 1520 min; on HDAC2 [2] it was 2540 min.

In the case of `N#CC1CCc2nc(C(=O)Nc3cc(-c4ccc(F)cc4)ccc3N)cn2C1` (stereo not drawn) [Compound 128], the dissociation constant Kd on HDAC2 [1] was 100 to 500 nM; at HDAC1 it was below 100 nM. Also, the residence time at HDAC1 stood at 1730 min; on HDAC2 [2] it was 1500 min.

Regarding `Nc1ccc(-c2ccncc2)cc1NC(=O)N1CC2CN(C3COC3)CC2C1` (stereo not drawn) [Compound 129], the equilibrium dissociation constant (Kd) at HDAC2 [1] was 100 to 500 nM; at HDAC1, below 100 nM. The residence time on HDAC1 amounted to 724 min; on HDAC2 [2] it was 1700 min.

`Nc1ccc(-c2ccc(Cl)cc2)cc1NC(=O)N1Cc2ccncc2C1` [Compound 130]: the Kd on HDAC2 [1] is 100 to 500 nM; on HDAC1, below 100 nM. The residence time came out at 1080 min on HDAC1 and 1300 min on HDAC2 [2].

With `Nc1ccc(-c2ccc(F)c(F)c2)cc1NC(=O)c1cn2c(n1)CNCC2` [Compound 131], the dissociation constant Kd at HDAC2 [1] and on HDAC1 was 100 to 500 nM throughout. The results for the residence time on HDAC1 and at HDAC2 [2] were 695 min and 1200 min, respectively.

For the compound `Nc1ccc(-c2ccc(C(F)(F)F)cc2F)cc1NC(=O)N1Cc2ccncc2C1` [Compound 132], the Kd at HDAC2 [1] and on HDAC1 was 500 to 5000 nM in each case. The figures for the residence time at HDAC1 and on HDAC2 [2] were 47 min and 111 min, respectively.

Regarding `Nc1ccc(-c2ccc(F)cc2F)cc1NC(=O)N1Cc2ccncc2C1` [Compound 133], the figures for the Kd on HDAC2 [1] and on HDAC1 were 100 to 500 nM and below 100 nM, respectively. For the same compound, the figures for the residence time at HDAC1 and on HDAC2 [2] were 1300 min and 1460 min, respectively.

With `Nc1ccc(-c2cccnc2)cc1NC(=O)N1Cc2ccncc2C1` [Compound 134], the Kd at HDAC2 [1] and at HDAC1 was 100 to 500 nM throughout. The figures for the residence time at HDAC1 and at HDAC2 [2] were 192 min and 790 min, respectively.

Take `Cc1cc(F)ccc1-c1ccc(N)c(NC(=O)N2Cc3ccncc3C2)c1` [Compound 141]: the Kd at HDAC2 [1] is above 5000 nM. In addition, on HDAC1, the residence time came out at 1350 min and the Kd is above 5000 nM.

Consider `Nc1ccc(-c2ccc(F)c(Cl)c2)cc1NC(=O)N1Cc2ccncc2C1` [Compound 163], for which the figures for the Kd on HDAC2 [1] and at HDAC1 were 500 to 5000 nM and 100 to 500 nM, respectively.
